Targets include PIK3CA (human) (UniProt P42336); PIK3CB (Human) (UniProt P42338); PIK3CD (Human) (UniProt O00329); PIK3CG (human) (UniProt P48736).
Test in all cases: Enzyme Assay

The structures appear in SMILES notation.

Sequence of PIK3CA (human) (P42336 whole entry, looked up): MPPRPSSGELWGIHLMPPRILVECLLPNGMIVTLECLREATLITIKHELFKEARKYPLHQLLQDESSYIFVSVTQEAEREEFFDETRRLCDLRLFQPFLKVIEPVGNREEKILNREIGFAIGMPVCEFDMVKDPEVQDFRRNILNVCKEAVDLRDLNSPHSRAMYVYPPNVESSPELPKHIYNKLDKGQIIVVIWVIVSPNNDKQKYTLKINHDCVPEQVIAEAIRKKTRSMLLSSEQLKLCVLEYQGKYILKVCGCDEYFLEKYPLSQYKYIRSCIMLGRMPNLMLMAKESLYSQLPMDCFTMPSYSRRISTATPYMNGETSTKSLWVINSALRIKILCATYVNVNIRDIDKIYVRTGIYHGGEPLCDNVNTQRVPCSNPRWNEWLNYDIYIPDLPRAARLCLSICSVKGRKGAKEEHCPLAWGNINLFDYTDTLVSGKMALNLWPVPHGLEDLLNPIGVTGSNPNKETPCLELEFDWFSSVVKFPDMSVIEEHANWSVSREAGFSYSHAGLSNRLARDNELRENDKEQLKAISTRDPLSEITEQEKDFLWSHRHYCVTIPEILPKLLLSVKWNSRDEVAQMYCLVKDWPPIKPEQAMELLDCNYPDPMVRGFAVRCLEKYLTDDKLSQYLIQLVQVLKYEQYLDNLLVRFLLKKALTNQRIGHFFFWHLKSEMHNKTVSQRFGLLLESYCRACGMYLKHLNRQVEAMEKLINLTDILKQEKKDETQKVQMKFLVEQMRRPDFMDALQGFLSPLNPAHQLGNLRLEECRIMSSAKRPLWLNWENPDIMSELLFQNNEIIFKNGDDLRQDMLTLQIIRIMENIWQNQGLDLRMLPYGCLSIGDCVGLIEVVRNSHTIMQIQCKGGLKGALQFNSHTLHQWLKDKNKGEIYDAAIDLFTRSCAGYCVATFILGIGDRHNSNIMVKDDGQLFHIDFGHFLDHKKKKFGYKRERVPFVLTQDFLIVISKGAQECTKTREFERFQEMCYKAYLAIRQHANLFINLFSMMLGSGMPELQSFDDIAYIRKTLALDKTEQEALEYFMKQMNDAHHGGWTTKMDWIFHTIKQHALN
Sequence of PIK3CG (human) (P48736 whole entry, looked up): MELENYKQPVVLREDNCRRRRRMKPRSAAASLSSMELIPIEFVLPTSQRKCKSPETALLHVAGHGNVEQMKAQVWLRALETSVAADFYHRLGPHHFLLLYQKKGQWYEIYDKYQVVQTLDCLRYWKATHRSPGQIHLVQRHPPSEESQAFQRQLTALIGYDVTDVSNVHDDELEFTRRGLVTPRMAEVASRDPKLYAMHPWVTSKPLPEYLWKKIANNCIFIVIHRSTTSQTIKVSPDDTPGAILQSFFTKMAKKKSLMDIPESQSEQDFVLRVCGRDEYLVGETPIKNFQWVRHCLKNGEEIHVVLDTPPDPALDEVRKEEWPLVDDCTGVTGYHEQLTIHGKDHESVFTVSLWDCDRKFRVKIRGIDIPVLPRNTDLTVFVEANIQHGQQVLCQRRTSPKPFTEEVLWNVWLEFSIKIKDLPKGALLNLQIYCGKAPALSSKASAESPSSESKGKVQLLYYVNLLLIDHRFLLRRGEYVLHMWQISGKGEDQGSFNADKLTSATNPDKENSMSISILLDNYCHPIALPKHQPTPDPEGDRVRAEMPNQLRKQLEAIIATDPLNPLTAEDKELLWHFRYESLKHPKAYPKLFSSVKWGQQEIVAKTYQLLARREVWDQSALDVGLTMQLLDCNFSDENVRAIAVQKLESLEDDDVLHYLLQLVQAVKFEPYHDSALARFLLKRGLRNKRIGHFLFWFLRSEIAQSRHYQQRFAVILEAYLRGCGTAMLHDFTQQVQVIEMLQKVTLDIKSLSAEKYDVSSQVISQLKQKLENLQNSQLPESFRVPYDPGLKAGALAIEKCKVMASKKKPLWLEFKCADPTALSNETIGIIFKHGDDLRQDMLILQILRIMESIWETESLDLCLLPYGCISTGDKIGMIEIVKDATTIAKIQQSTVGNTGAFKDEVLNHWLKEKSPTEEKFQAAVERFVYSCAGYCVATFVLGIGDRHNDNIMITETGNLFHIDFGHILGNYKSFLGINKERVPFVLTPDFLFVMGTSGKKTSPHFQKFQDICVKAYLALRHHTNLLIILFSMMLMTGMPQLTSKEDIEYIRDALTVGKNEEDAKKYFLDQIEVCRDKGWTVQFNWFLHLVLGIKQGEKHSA
Sequence of PIK3CD (Human) (O00329 whole entry, looked up): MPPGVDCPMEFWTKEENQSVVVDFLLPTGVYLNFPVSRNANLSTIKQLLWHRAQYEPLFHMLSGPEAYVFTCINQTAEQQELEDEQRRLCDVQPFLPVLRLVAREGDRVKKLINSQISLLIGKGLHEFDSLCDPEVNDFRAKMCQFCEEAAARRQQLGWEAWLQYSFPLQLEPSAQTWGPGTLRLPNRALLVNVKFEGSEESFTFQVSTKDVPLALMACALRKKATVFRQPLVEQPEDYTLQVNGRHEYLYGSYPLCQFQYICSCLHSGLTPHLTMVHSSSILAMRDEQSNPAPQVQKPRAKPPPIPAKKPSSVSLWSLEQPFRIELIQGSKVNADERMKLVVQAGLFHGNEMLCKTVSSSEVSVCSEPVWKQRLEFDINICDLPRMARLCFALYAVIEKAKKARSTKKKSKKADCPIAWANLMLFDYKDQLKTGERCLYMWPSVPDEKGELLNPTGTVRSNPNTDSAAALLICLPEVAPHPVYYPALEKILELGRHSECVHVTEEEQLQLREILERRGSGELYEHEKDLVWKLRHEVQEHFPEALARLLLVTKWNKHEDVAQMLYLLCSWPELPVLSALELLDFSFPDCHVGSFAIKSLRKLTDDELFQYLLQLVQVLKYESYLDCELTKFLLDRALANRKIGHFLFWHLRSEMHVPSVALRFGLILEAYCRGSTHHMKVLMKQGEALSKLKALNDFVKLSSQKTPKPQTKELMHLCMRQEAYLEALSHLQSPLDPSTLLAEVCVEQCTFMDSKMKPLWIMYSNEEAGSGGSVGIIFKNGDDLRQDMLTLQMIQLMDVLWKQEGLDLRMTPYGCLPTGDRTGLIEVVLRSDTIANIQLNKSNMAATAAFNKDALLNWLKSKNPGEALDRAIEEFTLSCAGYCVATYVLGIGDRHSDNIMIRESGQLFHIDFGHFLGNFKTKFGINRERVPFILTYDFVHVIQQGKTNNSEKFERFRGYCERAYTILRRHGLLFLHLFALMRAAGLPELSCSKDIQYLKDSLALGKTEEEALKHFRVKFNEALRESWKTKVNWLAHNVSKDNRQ
Sequence of PIK3CB (Human) (P42338 whole entry, looked up): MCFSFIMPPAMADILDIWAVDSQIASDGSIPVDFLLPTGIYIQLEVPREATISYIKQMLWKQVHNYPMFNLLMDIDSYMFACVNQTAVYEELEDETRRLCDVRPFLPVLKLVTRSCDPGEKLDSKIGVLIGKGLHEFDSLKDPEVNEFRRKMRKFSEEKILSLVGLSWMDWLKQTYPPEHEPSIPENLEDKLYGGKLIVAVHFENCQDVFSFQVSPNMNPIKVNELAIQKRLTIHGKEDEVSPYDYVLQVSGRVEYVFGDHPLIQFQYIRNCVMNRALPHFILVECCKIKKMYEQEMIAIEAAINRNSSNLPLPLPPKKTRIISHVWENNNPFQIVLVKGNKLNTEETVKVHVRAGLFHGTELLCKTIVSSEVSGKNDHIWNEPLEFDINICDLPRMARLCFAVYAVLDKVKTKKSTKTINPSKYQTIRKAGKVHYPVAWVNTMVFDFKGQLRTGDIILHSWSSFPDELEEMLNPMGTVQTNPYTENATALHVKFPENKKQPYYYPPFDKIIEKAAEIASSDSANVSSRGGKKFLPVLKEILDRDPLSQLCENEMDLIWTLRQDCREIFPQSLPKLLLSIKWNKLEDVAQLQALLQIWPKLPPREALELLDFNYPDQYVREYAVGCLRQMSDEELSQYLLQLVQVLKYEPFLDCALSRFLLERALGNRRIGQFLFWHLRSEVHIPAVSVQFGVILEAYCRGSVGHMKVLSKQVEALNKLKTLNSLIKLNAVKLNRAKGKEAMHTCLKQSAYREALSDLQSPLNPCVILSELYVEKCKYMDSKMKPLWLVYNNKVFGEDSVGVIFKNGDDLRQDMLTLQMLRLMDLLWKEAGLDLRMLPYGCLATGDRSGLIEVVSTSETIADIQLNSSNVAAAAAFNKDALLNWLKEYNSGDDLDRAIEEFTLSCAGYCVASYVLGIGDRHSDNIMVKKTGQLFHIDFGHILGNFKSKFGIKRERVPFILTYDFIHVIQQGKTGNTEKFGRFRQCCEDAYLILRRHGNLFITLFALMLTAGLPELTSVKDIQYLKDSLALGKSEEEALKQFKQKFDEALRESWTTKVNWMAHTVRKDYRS

As a reminder, the IC50 is the point on the concentration scale where inhibition reaches its midpoint. Read a low IC50 as higher potency. `C[C@@H](N)CC(=O)N1CCN(c2nc(-c3cccc(O)c3)nc(N3CCOCC3)n2)CC1`: the IC50 against PIK3CA (human) worked out at 2.2 µM; against PIK3CB (Human), 1.7 µM; on PIK3CD (Human), 1.3 µM; at PIK3CG (human), 16 µM.

At PIK3CG (human), `N[C@@H](Cc1ccccc1)C(=O)N1CCN(c2nc(N3CCOCC3)nc(-n3c(C(F)F)nc4ccccc43)n2)CC1` displayed an IC50 of more than 100 µM.

On to `CC(C)C[C@H](N)CC(=O)N1CCN(c2nc(-c3cccc(O)c3)nc(N3CCOCC3)n2)CC1`, for which the half-inhibitory concentration (IC50) is 21 µM against PIK3CA (human), 19 µM against PIK3CB (Human), 9.1 µM against PIK3CD (Human) and more than 100 µM against PIK3CG (human).

Turning to `N[C@H](CC(=O)N1CCN(c2nc(N3CCOCC3)nc(-n3c(C(F)F)nc4ccccc43)n2)CC1)Cc1ccccc1`, the 50% inhibitory concentration (IC50) was 26 µM at PIK3CA (human), 7.1 µM against PIK3CB (Human), 2.8 µM against PIK3CD (Human) and more than 100 µM against PIK3CG (human).

In the case of `NCCCC(=O)N1CCN(c2nc(N3CCOCC3)nc(-n3c(C(F)F)nc4ccccc43)n2)CC1`, the IC50 against PIK3CA (human) came to 0.85 µM; at PIK3CB (Human), 0.081 µM; on PIK3CD (Human), 0.077 µM; against PIK3CG (human), 7.5 µM.

As to `O=C(C1CCNCC1)N1CCN(c2nc(-c3cccc(O)c3)nc(N3CCOCC3)n2)CC1`, the IC50 against PIK3CA (human) is 1.5 µM; on PIK3CB (Human) it was 3.2 µM; against PIK3CD (Human), 0.33 µM; against PIK3CG (human) it was 6.5 µM.

For `CSCC[C@H](N)C(=O)N1CCN(c2nc(N3CCOCC3)nc(-n3c(C(F)F)nc4ccccc43)n2)CC1`, the half-inhibitory concentration (IC50) worked out at 13 µM against PIK3CA (human), 0.483 µM at PIK3CB (Human) and 2.95 µM on PIK3CD (Human).

Take `N[C@@H](Cc1ccccc1)C(=O)N1CCN(c2nc(-c3cccc(O)c3)nc(N3CCOCC3)n2)CC1`: the IC50 at PIK3CA (human) was 19 µM; against PIK3CB (Human), 0.19 µM; at PIK3CD (Human), 8.9 µM; at PIK3CG (human), more than 100 µM.

As to `CCC(C)[C@H](N)C(=O)N1CCN(c2nc(N3CCOCC3)nc(-n3c(C(F)F)nc4ccccc43)n2)CC1` (some centres not stated), the IC50 on PIK3CB (Human) is 0.067 µM; against PIK3CD (Human), 1 µM; at PIK3CG (human), more than 10 µM.

Regarding `N[C@H](CC(=O)N1CCN(c2nc(-c3cccc(O)c3)nc(N3CCOCC3)n2)CC1)Cc1ccccc1`, the concentration for half-maximal inhibition (IC50) on PIK3CA (human) was 62 µM; at PIK3CB (Human), 1.8 µM; on PIK3CD (Human), 17 µM; against PIK3CG (human), more than 100 µM.

With `Cc1cc(C(C)Nc2ccccc2)c2nc(N3CCOCC3)cc(=O)n2c1` (configuration not stated), the values for the IC50 against PIK3CA (human) and on PIK3CD (Human) were 5.07 µM and 0.376 µM, respectively.

As to `O=C(C[C@H]1CCCN1)N1CCN(c2nc(-c3cccc(O)c3)nc(N3CCOCC3)n2)CC1`, the 50% inhibitory concentration (IC50) at PIK3CA (human) came out at 4.4 µM; against PIK3CB (Human), 1.6 µM; against PIK3CD (Human), 0.026 µM; at PIK3CG (human), 5.5 µM.

Turning to `N[C@H](Cc1ccccc1)C(=O)N1CCN(c2nc(N3CCOCC3)nc(-n3c(C(F)F)nc4ccccc43)n2)CC1`, the IC50 against PIK3CB (Human) was 78 µM; against PIK3CG (human), 58 µM.

With `C[C@H](N)CC(=O)N1CCN(c2nc(N3CCOCC3)nc(-n3c(C(F)F)nc4ccccc43)n2)CC1`, the IC50 came to 3 µM at PIK3CA (human), 1.3 µM at PIK3CB (Human), 0.11 µM at PIK3CD (Human) and 7.5 µM against PIK3CG (human).

Values taken from the Kinase Knowledgebase extract (Sharma et al. 2016).
